From ChEMBL document CHEMBL1140612, “4-Methyl-1,2,3-selenadiazole-5-carboxylic acid amides: antitumor action and cytotoxic effect correlation” (Eur J Med Chem, 2007)
≈ marks a conversion by molar mass, not a printed value. Calls of active or inactive are those of the source. No cut-off for these calls is given here.

Assays:
HT-1080 [1] = assay: Cytotoxicity against human HT1080 cells after 72 hrs; type: functional; details: for CC50: HT-1080, 72 h, read-out: TD50 (the source's name)
MG-22A [2] = assay: Cytotoxicity against mouse MG22A cells after 72 hrs; type: functional; details: read-out: TD50 (the source's name)
[3] = Cytotoxicity against mouse NIH3T3 cells after 72 hrs; type: cell-based; details: read-out: TD50
HT-1080 [4] = assay: Effect on nitric oxide production in human HT1080 cells at 100 ug/ml by crystal violet coloration assay; type: functional
MG-22A [5] = assay: Effect on nitric oxide production in mouse MG22A cells at 100 ug/ml by crystal violet coloration assay; type: functional
CCRF S-180 [6] = assay: Antitumor activity against S180 cells inoculated in ICR mouse assessed as inhibition of tumor growth at 10 mg/kg, ip after 9 days; type: functional; details: for inhibition in vivo at 10 mg/kg: CCRF S-180, ip, 216 h, route intraperitoneal
Mus musculus [7] = assay: Toxicity in ICR mouse assessed as body weight at 10 mg/kg, ip after 9 days; type: organism-based; parameters: dose 10 mg/kg, route intraperitoneal; details: in vivo, 216 h
HT-1080 [8] = assay: Induction of apoptosis in human HT1080 cells after 72 hrs; type: functional, cell-based
MG-22A [9] = assay: Induction of apoptosis in mouse MG22A cells after 72 hrs; type: functional, cell-based
CCRF S-180 [10] = assay: Antitumor activity against S180 cells inoculated in ICR mouse assessed as inhibition of tumor growth at 2 mg/kg, ip after 2 days; type: functional; details: CCRF S-180, ip, 48 h, route intraperitoneal
Mus musculus [11] = assay: Toxicity in ICR mouse assessed as body weight at 2 mg/kg, ip after 2 days; type: organism-based; parameters: dose 2 mg/kg, route intraperitoneal; details: in vivo, 48 h
HT-1080 [12] = assay: Effect on cell morphology in human HT1080 cells after 72 hrs; type: functional, cell-based
CCRF S-180 [13] = assay: Antitumor activity against S180 cells inoculated in ICR mouse assessed as inhibition of tumor growth at 10 mg/kg, ip after 8 days; type: functional; details: CCRF S-180, ip, 192 h, route intraperitoneal
Mus musculus [14] = assay: Toxicity in ICR mouse assessed as body weight at 10 mg/kg, ip after 8 days; type: organism-based; parameters: dose 10 mg/kg, route intraperitoneal; details: in vivo, 192 h

Structure (SMILES)	CC50 (HT-1080 [1])	CC50 (MG-22A [2])	CC50 at 72 h [3]	Activity (HT-1080 [4])	Activity (MG-22A [5])	inhibition in vivo at 10 mg/kg (CCRF S-180 [6])	Activity (Mus musculus [7])	Activity (HT-1080 [1])	Activity (HT-1080 [8])	Activity (MG-22A [9])	inhibition in vivo at 2 mg/kg (CCRF S-180 [10])	Activity (Mus musculus [11])	Activity (HT-1080 [12])	inhibition in vivo at 10 mg/kg (CCRF S-180 [13])	Activity (Mus musculus [14])	Activity (CCRF S-180 [6])
Cc1nn[se]c1C(=O)N1CCCCC1	31 µg/mL (≈ 120 µM)	27 µg/mL (≈ 105 µM)	123 µg/mL (≈ 476 µM)	100%	400%	71%	8%	–	–	–	–	–	–	–	–	–
Cc1nn[se]c1C(=O)N(C)C	–	35 µg/mL (≈ 160 µM)	351 µg/mL (≈ 1610 µM)	10%	63%	–	–	Not toxic	Active	Active	58%	17%	–	–	–	–
Cc1nn[se]c1C(=O)N(C(C)C)C(C)C	–	31 µg/mL (≈ 113 µM)	718 µg/mL (≈ 2620 µM)	29%	200%	-32%	0%	Not toxic	–	–	–	–	–	–	–	–
Cc1nn[se]c1C(=O)N[C@@H](C)c1ccccc1	31 µg/mL (≈ 105 µM)	32 µg/mL (≈ 109 µM)	407 µg/mL (≈ 1380 µM)	300%	200%	–	–	–	–	–	–	–	Active	-23%	0%	–
Cc1nn[se]c1C(=O)N1CCCC1	19 µg/mL (≈ 77.8 µM)	33 µg/mL (≈ 135 µM)	214 µg/mL (≈ 876 µM)	350%	350%	85%	23%	–	–	Active	–	–	–	–	–	–
Cc1nn[se]c1C(=O)N1CCOCC1	–	34 µg/mL (≈ 131 µM)	280 µg/mL (≈ 1080 µM)	11%	250%	–	8%	Not toxic	–	–	–	–	–	–	–	Non-toxic
Cc1nn[se]c1C(=O)N[C@H](C)c1ccccc1	100 µg/mL (≈ 340 µM)	29 µg/mL (≈ 98.6 µM)	195 µg/mL (≈ 663 µM)	17%	400%	20%	3%	–	–	–	–	–	inactive	–	–	–
